Reference: patent publication US8318184B2, “MGLU2 agonists” (Eli Lilly and Company, priority 2009, dated 2012)

Experiments:
human mGlu2 receptor = target: T1, human mGlu2 receptor (Homo sapiens, UniProt Q14416); assay: Human mGlu2 Agonist FLIPR Assay; type: cell-based; conditions: hmGlu2 FLIPR assay, AV-12 cells, relative EC50
T1 construct: expressed in transfected cells; co-transfected with rat EAAT1 and Galpha15
Description: AV-12 cell lines, derived from Syrian Hamster fibroblasts and stably expressing the human mGlu2 receptor and co-transfected with the rat glutamate transporter EAAT 1 (Excitatory Amino Acid Transporter 1) and the Gα15 subunit, are used for these studies. The expression of Gα15 allows Gi-coupled receptors to signal through the phospholipase C pathway, resulting in the ability to measure receptor activation by a fluorometric calcium response assay. […]
Intracellular calcium levels are monitored before and after the addition of compounds using a Fluorometric Imaging Plate Reader (FLIPR, Molecular Devices). […] Results are analyzed using Prism v4.03 (GraphPad Software). […] After taking an initial 5-sec fluorescent read on the FLIPR instrument, a compound of the present invention is added to the cell plate (50 μL per well). […] The compound effect is measured as maximal minus minimal peak heights in relative fluorescent units (RFUs) corrected for basal fluorescence measured in the absence of glutamate. […] Agonist effects are quantified as percent stimulation induced by compound alone relative to the maximal glutamate response. All data are calculated as relative EC50 values using a four-parameter logistic curve fitting program (ActivityBase v5.3.1.22).

ICR(CD-1) mice = assay: Reversal of Phencyclidine (PCP)-Induced Hyperlocomotor Activity in Mice; type: in vivo, mouse; conditions: i.p.
Description: This assay for Reversal of Phencyclidine (PCP)-Induced Hyperlocomotor Activity in Mice is run substantially as the Reversal of Phencyclidine (PCP)-Induced Hyperlocomotor Activity in Rats assay provided above, using mice instead of rats and with the changes noted below.
Motor activity is monitored by placing individual male, ICR(CD-1), (Harlan, Indianapolis, Ind.) mice in transparent, plastic shoe-box cages of the dimensions 45×25×20 cm, with 0.5 cm depth of wood chips as bedding, and plastic lid on top of the cage. Motor monitors (Kinder Scientific) consist of a rectangular rack of 12 photobeams arranged in an 8×4 formation, (or a high density grouping of 22 in a 15×7 pattern) at a height of 2.5 cm. The shoe box cage is placed inside of these racks, with the racks on a 3 foot high tabletop in an isolated room. A compound of the present invention is dosed (intraperitoneal route, non-prodrug) usually within a range of 0.3-30 mg/kg; though higher doses may be used, 30 minutes prior to a 7.5 mg/kg challenge dose of phencyclidine (PCP). On the test day, mice are placed in the test cage and allowed to acclimate for 45 minutes prior to PCP challenge; mice are monitored for an additional 60 minutes following PCP administration.
Power analyses have determined that 7-8 mice per group are needed to have appropriate statistical power for detecting treatment differences (power=0.8).

[1] = both, human, pH 7.4
Experimental: Liver S9 fractions are obtained from Xenotech LLC (Lenexa, Mo.). The lot is from a pool of two donors. The liver S9 fraction is prepared and diluted using a homogenization buffer consisting of 50 mM Tris, pH 7.4 at 4° C. and 150 mM potassium chloride without EDTA. Prodrug compounds are incubated in the liver homogenate for 2 hours at 37° C., after which the concentration of compound is determined by LC/MS/MS. Hydrolysis of Clopidogrel to Clopidogrel Carboxylic Acid is utilized as an assay positive control.
A mobile phase gradient is utilized starting mobile phase ratio A/B of 99.9/0.1 and finishing at 1/99.

T1 sequence (Q14416 19-872): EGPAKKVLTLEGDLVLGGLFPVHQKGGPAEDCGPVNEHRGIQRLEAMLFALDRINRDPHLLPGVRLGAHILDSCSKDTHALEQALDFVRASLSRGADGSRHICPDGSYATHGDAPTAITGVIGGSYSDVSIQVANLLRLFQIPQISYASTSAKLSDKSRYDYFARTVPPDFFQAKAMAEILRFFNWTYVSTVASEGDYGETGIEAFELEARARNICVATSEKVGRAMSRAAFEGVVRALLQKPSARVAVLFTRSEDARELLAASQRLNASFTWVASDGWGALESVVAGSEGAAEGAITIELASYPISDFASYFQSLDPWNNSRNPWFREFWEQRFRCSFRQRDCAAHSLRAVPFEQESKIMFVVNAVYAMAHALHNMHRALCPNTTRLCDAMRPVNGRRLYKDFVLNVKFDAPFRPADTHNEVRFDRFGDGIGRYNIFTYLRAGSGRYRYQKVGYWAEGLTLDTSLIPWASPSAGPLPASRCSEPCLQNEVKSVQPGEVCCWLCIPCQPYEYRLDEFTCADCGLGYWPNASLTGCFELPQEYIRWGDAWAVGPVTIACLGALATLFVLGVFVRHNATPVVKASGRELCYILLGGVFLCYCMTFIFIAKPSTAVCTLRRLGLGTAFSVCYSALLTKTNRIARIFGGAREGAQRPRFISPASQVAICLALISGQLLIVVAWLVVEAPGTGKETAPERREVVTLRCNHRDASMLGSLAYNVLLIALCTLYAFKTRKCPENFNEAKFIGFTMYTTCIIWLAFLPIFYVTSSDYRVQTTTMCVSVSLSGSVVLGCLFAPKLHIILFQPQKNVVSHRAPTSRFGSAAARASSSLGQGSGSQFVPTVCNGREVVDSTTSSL

In the case of `N[C@]1(C(=O)O)C[C@H](Sc2ccccc2)[C@@H]2[C@@H](C(=O)O)[C@@H]21` (racemic) [1SR,2RS,4SR,5SR,6SR-2-amino-4-(phenylthio)-bicyclo[3.1.0]hexane-2,6-dicarboxylic acid], the EC50 (human mGlu2 receptor) is reported as greater than 25 µM, the “inhibition of PCP evoked ambulations” value (ICR(CD-1) mice; multiple dose experiment, 10 mg/kg dose) is reported as 5±10% and the “inhibition of PCP evoked ambulations” value (ICR(CD-1) mice; multiple dose experiment, 100 mg/kg dose) is reported as 19±8%. The “inhibition of PCP evoked ambulations” value (ICR(CD-1) mice; single dose experiment of 10 mg/kg) was 18±11%.
For `COC(=O)[C@H](c1ccccc1Cl)N1CCc2sccc2C1` [Clopidogrel], the “Hydrolysis of Clopidogrel to Clopidogrel Carboxylic Acid” value [1] was 73.0%.
